Test system: not listed separately
Test: Genotoxicity in Escherichia coli PQ37 expressing lacZ gene assessed as ratio of inducible beta-galactosidase activity to alkaline phosphatase activity at 30 mM after 2 hrs by SOS-chromotest relative to control
Type: toxicity
Settings: Escherichia coli PQ37 cells expressing lacZ gene, read-out: FC

Compound	fold induction at 2 h, 30000 µM
Cc1c(C)c2c(c(C)c1OC(=O)CCC(=O)O)CCC(C)(C(=O)NC1CC(C)(C)N([O])C1(C)C)O2 (stereo not given)	1.2

Test system: Salmonella typhimurium
Test: Genotoxicity in Salmonella typhimurium TA102 harboring […] mutant assessed as frequency of reversion from histidine auxotrophy to prototrophy at 30 mM after 48 hrs by Ames test (reference value: 209 +/- 10 No _unit)
Type: toxicity, organism-based
Settings: salmonella enterica subsp. enterica serovar typhimurium, 30000 µM

Compound	Activity
Cc1c(C)c2c(c(C)c1OC(=O)CCC(=O)O)CCC(C)(C(=O)NC1CC(C)(C)N([O])C1(C)C)O2 (stereo not given)	221

Test system: Salmonella enterica subsp. enterica serovar Typhimurium
Test: Antioxidant activity in Salmonella typhimurium TA102 harboring […] mutant assessed as inhibition of t-BuO2H-dependant mutant formation at 0.3 uM preincubated with compound followed by t-BuO2H addition after 48 hrs by Ames test
Type: functional
Settings: not given

Compound	inhibition [%]
Cc1c(C)c2c(c(C)c1OC(=O)CCC(=O)O)CCC(C)(C(=O)NC1CC(C)(C)N([O])C1(C)C)O2 (stereo not given)	6

Test system: Salmonella enterica subsp. enterica serovar Typhimurium
Test: Antioxidant activity in Salmonella typhimurium TA102 harboring […] mutant assessed as inhibition of t-BuO2H-dependant mutant formation at 3 uM preincubated with compound followed by t-BuO2H addition after 48 hrs by Ames test
Type: functional
Settings: not given

Compound	inhibition [%]
Cc1c(C)c2c(c(C)c1OC(=O)CCC(=O)O)CCC(C)(C(=O)NC1CC(C)(C)N([O])C1(C)C)O2 (stereo not given)	11

Test system: Salmonella enterica subsp. enterica serovar Typhimurium
Test: Antioxidant activity in Salmonella typhimurium TA102 harboring […] mutant assessed as inhibition of t-BuO2H-dependant mutant formation at 30 uM preincubated with compound followed by t-BuO2H addition after 48 hrs by Ames test
Type: functional
Settings: not given

Compound	inhibition [%]
Cc1c(C)c2c(c(C)c1OC(=O)CCC(=O)O)CCC(C)(C(=O)NC1CC(C)(C)N([O])C1(C)C)O2 (stereo not given)	33

Test system: not listed separately
Test: Cytotoxicity against human MCF7 cells assessed as reduction in cell viability after 72 hrs by MTT assay
Type: functional, cell-based
Settings: MCF7, 72 h

Compound	IC50 [µM]
Cc1c(C)c2c(c(C)c1OC(=O)CCC(=O)O)CCC(C)(C(=O)NC1CC(C)(C)N([O])C1(C)C)O2 (stereo not given)	> 300

Test system: not listed separately
Test: Cytotoxicity against human RPMI8226 cells assessed as reduction in cell viability after 72 hrs by MTT assay
Type: functional, cell-based
Settings: RPMI-8226, 72 h

Compound	IC50 [µM]
Cc1c(C)c2c(c(C)c1OC(=O)CCC(=O)O)CCC(C)(C(=O)NC1CC(C)(C)N([O])C1(C)C)O2 (stereo not given)	> 300

Test system: not listed separately
Test: Cytotoxicity against human HepG2 cells assessed as reduction in cell viability after 72 hrs by MTT assay
Type: functional, cell-based
Settings: HepG2, 72 h

Compound	IC50 [µM]
Cc1c(C)c2c(c(C)c1OC(=O)CCC(=O)O)CCC(C)(C(=O)NC1CC(C)(C)N([O])C1(C)C)O2 (stereo not given)	> 300

Test system: not listed separately
Test: Cytotoxicity against human CEM13 cells assessed as reduction in cell viability after 72 hrs by MTT assay
Type: functional, cell-based
Settings: CEM13, 72 h

Compound	IC50 [µM]
Cc1c(C)c2c(c(C)c1OC(=O)CCC(=O)O)CCC(C)(C(=O)NC1CC(C)(C)N([O])C1(C)C)O2 (stereo not given)	205

Test system: not listed separately
Test: Cytotoxicity against human U937 cells assessed as reduction in cell viability after 72 hrs by MTT assay
Type: functional, cell-based
Settings: U-937, 72 h

Compound	IC50 [µM]
Cc1c(C)c2c(c(C)c1OC(=O)CCC(=O)O)CCC(C)(C(=O)NC1CC(C)(C)N([O])C1(C)C)O2 (stereo not given)	163

Test system: not listed separately
Test: Cytotoxicity against human MT4 cells assessed as reduction in cell viability after 72 hrs by MTT assay
Type: functional, cell-based
Settings: MT4, 72 h

Compound	IC50 [µM]
Cc1c(C)c2c(c(C)c1OC(=O)CCC(=O)O)CCC(C)(C(=O)NC1CC(C)(C)N([O])C1(C)C)O2 (stereo not given)	> 300

Test system: not listed separately
Test: Cytotoxicity against mouse LMTK cells assessed as reduction in cell viability after 72 hrs by MTT assay
Type: toxicity
Settings: not given

Compound	IC50 at 72 h [µM]
Cc1c(C)c2c(c(C)c1OC(=O)CCC(=O)O)CCC(C)(C(=O)NC1CC(C)(C)N([O])C1(C)C)O2 (stereo not given)	> 300

Test system: not listed separately
Test: Cytotoxicity against hamster AG17-1 cells assessed as reduction in cell viability after 72 hrs by MTT assay
Type: toxicity, cell-based, Cricetulus griseus
Settings: Chinese hamster

Compound	IC50 at 72 h [µM]
Cc1c(C)c2c(c(C)c1OC(=O)CCC(=O)O)CCC(C)(C(=O)NC1CC(C)(C)N([O])C1(C)C)O2 (stereo not given)	> 300

Test system: not listed separately
Test: Cytotoxicity against human MCF7 cells assessed as reduction in cell viability at 300 uM after 72 hrs by MTT assay
Type: functional
Settings: MCF7, 72 h

Compound	inhibition at 300 µM [%]
Cc1c(C)c2c(c(C)c1OC(=O)CCC(=O)O)CCC(C)(C(=O)NC1CC(C)(C)N([O])C1(C)C)O2 (stereo not given)	25

Test system: not listed separately
Test: Cytotoxicity against human RPMI8226 cells assessed as reduction in cell viability at 300 uM after 72 hrs by MTT assay
Type: functional
Settings: RPMI-8226, 72 h

Compound	inhibition at 300 µM [%]
Cc1c(C)c2c(c(C)c1OC(=O)CCC(=O)O)CCC(C)(C(=O)NC1CC(C)(C)N([O])C1(C)C)O2 (stereo not given)	28

Test system: not listed separately
Test: Cytotoxicity against human HepG2 cells assessed as reduction in cell viability at 300 uM after 72 hrs by MTT assay
Type: functional
Settings: HepG2, 72 h

Compound	inhibition at 300 µM [%]
Cc1c(C)c2c(c(C)c1OC(=O)CCC(=O)O)CCC(C)(C(=O)NC1CC(C)(C)N([O])C1(C)C)O2 (stereo not given)	25

Test system: not listed separately
Test: Cytotoxicity against human MT4 cells assessed as reduction in cell viability at 300 uM after 72 hrs by MTT assay
Type: functional
Settings: MT4, 72 h

Compound	inhibition at 300 µM [%]
Cc1c(C)c2c(c(C)c1OC(=O)CCC(=O)O)CCC(C)(C(=O)NC1CC(C)(C)N([O])C1(C)C)O2 (stereo not given)	45

Test system: not listed separately
Test: Cytotoxicity against mouse LMTK cells assessed as reduction in cell viability at 300 uM after 72 hrs by MTT assay
Type: toxicity
Settings: read-out: INH

Compound	cytotoxicity at 72 h, 300 µM [%]
Cc1c(C)c2c(c(C)c1OC(=O)CCC(=O)O)CCC(C)(C(=O)NC1CC(C)(C)N([O])C1(C)C)O2 (stereo not given)	0

Test system: not listed separately
Test: Cytotoxicity against hamster AG17-1 cells assessed as reduction in cell viability at 300 uM after 72 hrs by MTT assay
Type: toxicity, cell-based, Cricetulus griseus
Settings: Chinese hamster, read-out: INH

Compound	cytotoxicity at 72 h, 300 µM [%]
Cc1c(C)c2c(c(C)c1OC(=O)CCC(=O)O)CCC(C)(C(=O)NC1CC(C)(C)N([O])C1(C)C)O2 (stereo not given)	27

Test system: not listed separately
Test: Ratio of IC50 for human MCF7 cells to concentration causing antioxidant activity in Salmonella typhimurium TA102 harboring […] mutant
Type: functional
Settings: not given

Compound	Ratio
Cc1c(C)c2c(c(C)c1OC(=O)CCC(=O)O)CCC(C)(C(=O)NC1CC(C)(C)N([O])C1(C)C)O2 (stereo not given)	100 - 1000

Test system: not listed separately
Test: Ratio of IC50 for human RPMI8226 cells to concentration causing antioxidant activity in Salmonella typhimurium TA102 harboring […] mutant
Type: functional, RPMI-8226
Settings: not given

Compound	Ratio
Cc1c(C)c2c(c(C)c1OC(=O)CCC(=O)O)CCC(C)(C(=O)NC1CC(C)(C)N([O])C1(C)C)O2 (stereo not given)	100 - 1000

Test system: not listed separately
Test: Ratio of IC50 for human HEPG2 cells to concentration causing antioxidant activity in Salmonella typhimurium TA102 harboring […] mutant
Type: functional
Settings: not given

Compound	Ratio
Cc1c(C)c2c(c(C)c1OC(=O)CCC(=O)O)CCC(C)(C(=O)NC1CC(C)(C)N([O])C1(C)C)O2 (stereo not given)	100 - 1000

Test system: not listed separately
Test: Ratio of IC50 for human CEM13 cells to concentration causing antioxidant activity in Salmonella typhimurium TA102 harboring […] mutant
Type: functional
Settings: not given

Compound	Ratio
Cc1c(C)c2c(c(C)c1OC(=O)CCC(=O)O)CCC(C)(C(=O)NC1CC(C)(C)N([O])C1(C)C)O2 (stereo not given)	100 - 1000

Test system: not listed separately
Test: Ratio of IC50 for human MT4 cells to concentration causing antioxidant activity in Salmonella typhimurium TA102 harboring […] mutant
Type: functional
Settings: not given

Compound	Ratio
Cc1c(C)c2c(c(C)c1OC(=O)CCC(=O)O)CCC(C)(C(=O)NC1CC(C)(C)N([O])C1(C)C)O2 (stereo not given)	100 - 1000

Test system: not listed separately
Test: Ratio of IC50 for human U937 cells to concentration causing antioxidant activity in Salmonella typhimurium TA102 harboring […] mutant
Type: functional, U-937
Settings: not given

Compound	Ratio
Cc1c(C)c2c(c(C)c1OC(=O)CCC(=O)O)CCC(C)(C(=O)NC1CC(C)(C)N([O])C1(C)C)O2 (stereo not given)	100 - 1000
